# Test results taken from patent US20170265463A1, “SPORICIDAL COMPOSITION” (CASE WESTERN RESERVE UNIVERSITY, priority 2016, published 2017).
# Legend:
# [1] = tested on: Clostridium difficile spores (VA11, VA17, ATCC 43593); assay: Effect of altered pH on sporicidal activity of alcohol (spore suspension, log10CFU reduction); type: cell-based; details: 70% alcohol acidified to pH<2 (pH 1.5), 5 minutes, room temperature (FIG. 7A)
# Procedure: (room temperature). B. subtilis, B. thuringiensis, and three strains of C. difficile spores were tested (described above in Spore Strains and Growth Conditions). The reaction was quenched by neutralizing 1:1 in Dey-Engley neutralization broth (BD Biosciences, San Jose, Calif., USA). Neutralized samples were serial diluted in deionized water, drop-plated, and cultured as described above in Spore Strains and Growth Conditions.
# The reaction was quenched by neutralizing 1:1 in Dey-Engley neutralization broth (BD Biosciences, San Jose, Calif.). Neutralized samples were serially diluted in deionized water, drop-plated, and cultured as described previously. To increase the sensitivity of enumeration for samples with high levels of spore killing, 1 mL of the neutralized spore suspensions were spread-plated.
# B. subtilis spores [2] = details: 70% ethanol, no pH alteration, 80° C., 60 minutes
# Procedure: (§1) To determine the effect of elevated temperature on the sporicidal efficacy of ethanol, ten microliters of spores (˜10^6 CFU) were incubated in one mL of 70% ethanol or deionized water at about 22° C. (room temperature), 55° C. or 80° C. The pH was not altered for these experiments. B. subtilis, B. thuringiensis, and VA11 and VA17 C. difficile spores were tested (described above in Spore Strains and Growth Conditions). After 0, 5, 10, 20, 30 and 60 minutes of incubation at the appropriate temperature, aliquots of each spore suspension were serial diluted in deionized water, drop-plated, and cultured as described above in Spore Strains and Growth Conditions. Log10CFU reduction of spores was determined by calculating the difference in log10CFU recovered from baseline (spores incubated in water) and experimental groups (spores incubated in ethanol).
# B. thuringiensis spores [3] = details: 70% ethanol, no pH alteration, 80° C., 60 minutes
# Procedure: as §1
# [4] = tested on: C. difficile spores (strains VA11 and VA17); details: 70% ethanol, no pH alteration
# Procedure: as §1
# [5] = tested on: C. difficile (VA17) spores; assay: Dipicolinic acid (DPA) release, terbium fluorescence; type: cell-based, Clostridium difficile; details: room temperature, within 10 minutes; compared to water, 70% ethanol and pH 1.5 water
# Procedure: (§2) To assess whether acidified ethanol truly kills spores or only renders them incapable of germination, recovery of killed spores was assessed by incubation in lysozyme or dodecylamine which bypass germinant receptors. To assess whether acidified ethanol kills spores through alteration in the permeability of the dormant spores' inner membrane barrier, we evaluated whether spore killing occurs in parallel with dipicolinic acid (DPA) release. C. difficile (VA17), B. thuringiensis and B. subtilis spores were suspended in water, water altered to pH 1.5, 70% ethanol, 70% ethanol altered to pH 1.5, 3.0 or 3.0 with increased ionic strength, and 1 mM dodecylamine (induces DPA release in spores of several species). After 1, 5, and 10 minutes of incubation at room temperature (about 22° C.), DPA release was assessed as previously described. […] Fluorescence was measured using a plate reader (SpectraMaxM2, Bucher Biotec, Basel, Switzerland) with the following settings: time resolved fluorescence (delay 50 μs, interval 1200 μs) at an excitation wavelength of 272 nm, emission wavelength of 545 nm, and 5 endpoint readings per sample at 22° C. To determine percent DPA release, relative fluorescence units (RFU) of test solutions were compared to the RFU of total spore DPA content (supernatant of 10^7 CFU spores suspended in water boiled for 30 minutes) as previously described.
# B. subtilis spores [6] = details: room temperature, 1, 5, 10 minutes
# Procedure: as §2
# B. thuringiensis spores [7] = details: room temperature, 1, 5, 10 minutes
# Procedure: as §2
# [8] = tested on: toxigenic C. difficile spores; parameters: species or system Clostridium difficile; details: applied as a liquid or wipe
# Source text: Reduction of toxigenic C. difficile spores inoculated on gloves of volunteers was compared after 30 or 60 second exposures to the sporicidal ethanol formulation, 70% ethanol, and 1:10 or 1:100 dilutions of household bleach; the solutions were applied both as a liquid solution and as a wipe. We also examined the efficacy of the sporicidal ethanol formulation for elimination of spore contamination from the gloves of healthcare personnel interacting with C. difficile infection (CDI) patients or their environment. To determine the potential for the disinfectants to damage clothing, the solutions were applied to pieces of colored cloth.
# spores = assay: Other antibacterial compounds in combination with acidified ethanol (sporicidal activity); type: cell-based; details: compared with addition of peracetic acid
# [9] = tested on: C. difficile (VA17) spores; assay: Effect of addition of dilute peracetic acid on sporicidal activity of acidified ethanol; type: cell-based, Clostridium difficile; details: peracetic acid alone at 450, 650 and 1500 ppm, 3 minute dwell time
# Procedure: (§3) The effect of addition of peracetic acid on activity of acidified ethanol against C. difficile (VA17) and B. subtilis was tested at room temperature (about 22° C.). The pH of specified test solutions was adjusted to 2.5 or 1.5 with hydrochloric acid (HCl). Ten microliters of spores (about 10^6 CFU) were inoculated into one mL of water (baseline), pH adjusted ethanol, peracetic acid at 450, 650, or 1500 ppm, pH adjusted peracetic acid at 450 and 650 ppm, ethanol plus peracetic acid at 450 and 650 ppm, and pH adjusted ethanol plus peracetic acid at 450 and 650 ppm. Spore suspensions were incubated at room temperature for three minutes. The reaction was quenched by neutralizing 1:1 in Dey-Engley neutralization broth (BD Biosciences). […] Experiments were performed in triplicate.
# (§4) The effect of the addition of dilute PAA on the activity of acidified ethanol against C. difficile strain VA17 and B. subtilis was tested at 22° C. The pH of specified test solutions was adjusted to 2.5 or 1.5 with hydrochloric acid. Ten μL of spores (˜10^6 CFU) were inoculated into one mL of water (baseline), pH adjusted ethanol, PAA at 450, 650, or 1500 ppm, pH adjusted PAA at 450 and 650 ppm, ethanol plus PAA at 450 and 650 ppm, and pH adjusted ethanol plus PAA at 450 and 650 ppm and incubated for 3 minutes. The reaction was quenched by neutralizing 1:1 in Dey-Engley neutralization broth. […]
# B. subtilis spores [10] = assay: as above; type: cell-based, Bacillus subtilis; details: peracetic acid alone at 450, 650 and 1500 ppm, 3 minute dwell time
# Procedure: as §3, §4
# [11] = tested on: non-toxigenic C. difficile spores (ATCC 43593); assay: Reduction of C. difficile spores on hands of volunteers (fingerpad method, modified ASTM E 2276-10); type: in vivo, Clostridium difficile; details: Example 3; P>0.05
# Procedure: A modification of the “Standard Test Method for Determining the Bacteria-Eliminating Effectiveness of Hygienic Handwash and Handrub Agents Using the Fingerpads of Adults” (American Society for Testing and Materials E 2276-10) was used to determine the efficacy of test solutions against non-toxigenic C. difficile spores. Each fingerpad of both hands were contaminated with 10 μL of a liquid inoculum containing 6 log10CFU of ATCC 43593 spores. The fingerpads were rubbed together until the inoculum was dry. Hand contamination levels were measured using the fingerpad sampling method. In brief, the fingerpads of each hand were rubbed with slight friction against the bottom of a 150 mm×15 mm Petri dish filled with 25 mL of Dey-Engley neutralizer (BD Biosciences, San Jose, Calif., USA) for 30 seconds. […] Log10 reductions were calculated by subtracting log10 CFU recovered after hand hygiene treatment from log10 CFU recovered from hands without treatment.
# A crossover design was used such that each volunteer was exposed to three of the disinfection procedures. […] The person reading the plates to quantify spore counts was blinded to the test product that was used. […]
# Similar experiments were conducted to assess the efficacy of dilute peracetic acid-containing solutions and acidified ethanol solutions at 42° C. […] Reductions in spore counts were then determined as described previously. […]
# [12] = in-use concentrations of surface disinfectants (~1500 ppm); cited from earlier work
compound,measurement,setting,value
CCCO [1-propanol],Sporicidal activity against C. difficile spores on acidification of the alcohol,[1],induced sporicidal activity
CC(C)O [2-propanol],Sporicidal activity against C. difficile spores on acidification of the alcohol,[1],induced sporicidal activity
"CCO [70% ethanol, ethanol]",Log10CFU reduction of B. subtilis spores,B. subtilis spores [2],> 4 log10CFU
same,Log10CFU reduction of B. thuringiensis spores,B. thuringiensis spores [3],> 5 log10CFU
same,Log10CFU reduction of C. difficile spores,"[4]; 55° C., 60 minutes",1 log10CFU
same,Detectable C. difficile spores,"[4]; 80° C., 10 minutes",no C. difficile spores were detectable
same,DPA release from C. difficile spores,[5],low levels of baseline DPA release
same,DPA release from B. subtilis spores,B. subtilis spores [6],did not
same,DPA release from B. thuringiensis spores,B. thuringiensis spores [7],low levels of baseline DPA release
same,Reduction in spores on gloves,[8],< 1 log
[O][Cl+][O-] [chlorine dioxide],Enhancement of sporicidal activity on addition to acidified ethanol,spores,did not result in similar enhancement of sporicidal activity
[Cu] [copper],Enhancement of sporicidal activity on addition to acidified ethanol,spores,did not result in similar enhancement of sporicidal activity
II [iodine],Enhancement of sporicidal activity on addition to acidified ethanol,spores,did not result in similar enhancement of sporicidal activity
CC(=O)OO [peracetic acid],Reduction of C. difficile spores,[9],in a dose-dependent fashion
same,Reduction of B. subtilis spores,B. subtilis spores [10],in a dose-dependent fashion
same,Reduction in C. difficile spores on hands compared with soap and water hand wash,[11],not significantly different
same,Skin irritation,[12],does not cause skin irritation
OCl [sodium hypochlorite],Enhancement of sporicidal activity on addition to acidified ethanol,spores,did not result in similar enhancement of sporicidal activity
